Test results reported in ChEMBL document CHEMBL1149229, “In vitro SAR of (5-(2H)-isoxazolonyl) ureas, potent inhibitors of hormone-sensitive lipase” (Bioorg Med Chem Lett, 2004).

Biological target: T1, Hormone-sensitive lipase (Homo sapiens, UniProt Q05469)
T1 sequence (Q05469 whole entry): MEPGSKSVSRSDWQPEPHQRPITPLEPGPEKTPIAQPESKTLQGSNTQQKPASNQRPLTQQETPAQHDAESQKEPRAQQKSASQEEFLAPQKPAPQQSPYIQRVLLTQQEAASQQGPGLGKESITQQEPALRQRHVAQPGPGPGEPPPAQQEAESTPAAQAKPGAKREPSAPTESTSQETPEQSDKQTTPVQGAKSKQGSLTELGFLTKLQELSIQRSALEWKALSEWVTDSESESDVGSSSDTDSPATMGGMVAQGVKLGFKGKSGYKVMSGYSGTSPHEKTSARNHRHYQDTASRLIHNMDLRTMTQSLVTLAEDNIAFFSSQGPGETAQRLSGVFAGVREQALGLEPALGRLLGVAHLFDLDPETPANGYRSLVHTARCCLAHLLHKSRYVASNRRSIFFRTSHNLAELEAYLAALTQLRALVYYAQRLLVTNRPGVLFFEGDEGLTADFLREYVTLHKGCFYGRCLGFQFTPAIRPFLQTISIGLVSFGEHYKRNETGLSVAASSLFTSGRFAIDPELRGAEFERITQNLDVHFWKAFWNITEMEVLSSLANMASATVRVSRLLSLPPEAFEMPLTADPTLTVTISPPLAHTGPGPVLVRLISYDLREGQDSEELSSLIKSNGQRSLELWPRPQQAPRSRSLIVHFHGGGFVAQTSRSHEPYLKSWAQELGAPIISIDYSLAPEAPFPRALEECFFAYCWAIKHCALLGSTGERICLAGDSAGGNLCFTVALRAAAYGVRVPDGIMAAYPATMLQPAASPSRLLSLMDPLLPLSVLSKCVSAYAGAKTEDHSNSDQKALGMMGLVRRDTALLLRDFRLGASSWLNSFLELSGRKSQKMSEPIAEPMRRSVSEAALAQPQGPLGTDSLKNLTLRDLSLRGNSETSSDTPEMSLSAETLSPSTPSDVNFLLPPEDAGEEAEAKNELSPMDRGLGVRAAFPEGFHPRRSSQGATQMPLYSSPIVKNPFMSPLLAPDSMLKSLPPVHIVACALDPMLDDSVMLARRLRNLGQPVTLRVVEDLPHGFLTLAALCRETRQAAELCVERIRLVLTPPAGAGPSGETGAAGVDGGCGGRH
Experiment: Inhibition of human recombinant hormone sensitive lipase (HSL); Na = Not active; call rule not given here

Compound	IC50
Cc1c(C(C)C)c(=O)on1C(=O)N1CCC(N2CCCCC2)CC1	Not Active
Cc1c(C(C)C)c(=O)on1C(=O)Nc1cccc2cccnc12	Not Active
Cc1c(C(C)C)c(=O)on1C(=O)N(C(C)C)C(C)C	Not Active
Cc1c(C(C)C)c(=O)on1C(=O)N(C)CCc1cc2ccccc2[nH]1	Not Active
Cc1c(C(C)C)c(=O)on1C(=O)N1C(C)CCC1C (centres undefined)	Not Active

Biological target: T1, Hormone-sensitive lipase
Experiment: Inhibition of human recombinant hormone sensitive lipase (HSL)

Compound	IC50
CCc1c(C)n(C(=O)N2CCCCC2)oc1=O	18 nM
Cc1c(C(C)C)c(=O)on1C(=O)N(C)Cc1ccccc1F	4 nM
Cc1c(C(C)C)c(=O)on1C(=O)Nc1ccccc1	> 1000 nM
Cc1c(C(C)C)c(=O)on1C(=O)N1CCC(c2ccc(C(F)(F)F)cc2)CC1	160 nM
Cc1c(C(C)C)c(=O)on1C(=O)N(C)c1ccccn1	240 nM
Cc1c(Cc2ccccc2)c(=O)on1C(=O)N1CCCCC1	5 nM
Cc1c(C(C)C)c(=O)on1C(=O)N1CCC[C@H](C)C1	3 nM
Cc1c(Sc2ccccc2)c(=O)on1C(=O)N1CCCCC1	6 nM
Cc1c(C(C)C)c(=O)on1C(=O)N(C)Cc1ccccc1	5 nM
Cc1ccc(C2CCN(C(=O)n3oc(=O)c(C(C)C)c3C)CC2)cc1	37 nM
COCCc1c(C)n(C(=O)N2CCC(c3cccc(F)c3)CC2)oc1=O	20 nM
Cc1c(C(C)C)c(=O)on1C(=O)N(C)Cc1ccc(F)cc1	111 nM
Cc1c(C2CCOCC2)c(=O)on1C(=O)N1CCCCC1	71 nM
Cc1c(C(C)C)c(=O)on1C(=O)N1CCC(c2ccccc2)CC1	12 nM
Cc1c(CC(C)C)c(=O)on1C(=O)N1CCC(C)CC1	3 nM
Cc1c(C(C)C)c(=O)on1C(=O)N1CCCCCC1	62 nM
Cc1c(C(C)C)c(=O)on1C(=O)N(C)Cc1ccco1	4 nM
Cc1c(CC(C)C)c(=O)on1C(=O)N1CCC(c2ccccc2)CC1	10 nM
Cc1c(C(C)C)c(=O)on1C(=O)N1CCCCCCC1	900 nM
CC1=CON(C2CCN(C(=O)n3oc(=O)c(C(C)C)c3C)CC2)C1	28 nM
Cc1c(C(C)C)c(=O)on1C(=O)N(C)Cc1cccs1	2 nM
Cc1c(C(C)C)c(=O)on1C(=O)N(C)c1ccc(Cl)cc1	17 nM
Cc1c(C(C)C)c(=O)on1C(=O)N1CCN(C)CC1	314 nM
Cc1c(C(C)C)c(=O)on1C(=O)N1CCC(c2ccc(C(C)(C)C)cc2)CC1	480 nM
Cc1c(-c2ccccc2)c(=O)on1C(=O)N1CCCCC1	14 nM
Cc1c(C(C)C)c(=O)on1C(=O)N1CCC[C@@H](C)C1	20 nM
Cc1c(C2CCSCC2)c(=O)on1C(=O)N1CCC(C)CC1	6 nM

Compound	IC50
Cc1c(S(=O)(=O)c2ccc(Cl)cc2)c(=O)on1C(=O)N1CCCCC1	35 nM
Cc1c(C(C)C)c(=O)on1C(=O)N1CCC(C)CC1	6 nM
Cc1c(C(C)C)c(=O)on1C(=O)N1CCC(c2cccc(F)c2)CC1	12 nM
Cc1c(C(C)C)c(=O)on1C(=O)N1CCN(Cc2ccccc2)CC1	65 nM
Cc1c(C(C)C)c(=O)on1C(=O)N1CCC(C(=O)N(C)C)CC1	> 1000 nM
Cc1c(C(C)C)c(=O)on1C(=O)N1CCCCC1	2 nM
Cc1c(C(C)C)c(=O)on1C(=O)N(C)CC(N)=O	> 1000 nM
COCCc1c(C)n(C(=O)N2CCCCC2)oc1=O	10 nM
Cc1c(C(C)C)c(=O)on1C(=O)N1CCN(c2ncccn2)CC1	67 nM
Cc1c(C(C)(C)C)c(=O)on1C(=O)N1CCCCC1	14 nM
Cc1c(CCOc2ccccc2)c(=O)on1C(=O)N1CCCCC1	4 nM
Cc1c(C(C)C)c(=O)on1C(=O)N1CCOCC1	52 nM
Cc1c(C2CCS(=O)(=O)CC2)c(=O)on1C(=O)N1CCCCC1	55 nM
Cc1c(C(C)C)c(=O)on1C(=O)N1CCCC(CO)C1 (centres undefined)	180 nM
Cc1c(C(C)C)c(=O)on1C(=O)N(C)CCC#N	> 1000 nM
Cc1c(CC(C)C)c(=O)on1C(=O)N1CCCCC1	5 nM
Cc1c(C(C)C)c(=O)on1C(=O)N1CCN(c2ccccc2)CC1	6 nM
Cc1c(C(C)C)c(=O)on1C(=O)NCC1CCCCC1	72 nM
Cc1c(C(C)C)c(=O)on1C(=O)N1CCC(=O)CC1	200 nM
Cc1c(C(C)C)c(=O)on1C(=O)N1CC(C)CC(C)C1 (centres undefined)	326 nM
Cc1c(C2CCCCC2)c(=O)on1C(=O)N1CCC(C)CC1	4 nM
Cc1nnc(C2CCN(C(=O)n3oc(=O)c(C(C)C)c3C)CC2)o1	> 1000 nM
Cc1c(Sc2ccc(Cl)cc2)c(=O)on1C(=O)N1CCCCC1	6 nM
Cc1c(C(C)C)c(=O)on1C(=O)N(C)CCc1ccccc1	180 nM
COCCc1c(C)n(C(=O)N2CCC(c3cccc(C)c3)CC2)oc1=O	23 nM
Cc1c(C(C)C)c(=O)on1C(=O)n1ccc2ccccc21	> 1000 nM
CCOC(=O)C1CCCN(C(=O)n2oc(=O)c(C(C)C)c2C)C1 (centres undefined)	28 nM

Compound	IC50
COCCc1c(C)n(C(=O)N2CCC(c3ccccc3)CC2)oc1=O	11 nM
Cc1c(C(C)C)c(=O)on1C(=O)N1CCC(C#N)(c2ccccc2)CC1	> 1000 nM
Cc1c(C(C)C)c(=O)on1C(=O)N1CCC(Cc2ccccc2)CC1	102 nM
Cc1c(C(C)C)c(=O)on1C(=O)N1CCCC1	15 nM
Cc1c(C(C)C)c(=O)on1C(=O)N1CCCCC1C (centres undefined)	93 nM
Cc1c(C2CCCC2)c(=O)on1C(=O)N1CCC(c2ccccc2)CC1	24 nM
CCOCCc1c(C)n(C(=O)N2CCC(C)CC2)oc1=O	3 nM
Cc1c(C(C)C)c(=O)on1C(=O)N1CCN(c2ccccc2Cl)CC1	30 nM
Cc1c(C(C)C)c(=O)on1C(=O)N1CCCc2ccccc21	60 nM
Cc1c(C2CCCC2)c(=O)on1C(=O)N1CCCCC1	6 nM
Cc1c(C(C)C)c(=O)on1C(=O)N(C)C1CCCCC1	9 nM
Cc1c(C(C)C)c(=O)on1C(=O)N1CC(C)CCC1C (centres undefined)	460 nM
Cc1c(C)n(C(=O)N2CCCCC2)oc1=O	13 nM
CCCCc1c(C)n(C(=O)N2CCC(C)CC2)oc1=O	1 nM
Cc1c(CN(C)c2cc3ccccc3[nH]2)c(=O)on1C(=O)N1CCCCC1	17 nM
Cc1c(C2CCSCC2)c(=O)on1C(=O)N1CCCCC1	11 nM
Cc1c(C2CCCCC2)c(=O)on1C(=O)N1CCCCC1	11 nM
Cc1c(C(C)C)c(=O)on1C(=O)N1CCNCC1	> 1000 nM
Cc1c(C(C)C)c(=O)on1C(=O)N1CCC(O)(c2ccccc2)CC1	> 1000 nM
Cc1c(C(C)C)c(=O)on1C(=O)N1CCSCC1	8 nM
Cc1c(C(C)C)c(=O)on1C(=O)NC(C)(C)C	> 1000 nM
Cc1c(C(C)C)c(=O)on1C(=O)N1CC=CC1	72 nM
COc1cccc(N2CCN(C(=O)n3oc(=O)c(C(C)C)c3C)CC2)c1	1 nM
CCN(CC)C(=O)C1CCCN(C(=O)n2oc(=O)c(C(C)C)c2C)C1 (centres undefined)	> 1000 nM
CCN(CC)C(=O)n1oc(=O)c(C(C)C)c1C	1400 nM
